Results taken from patent publication US11725015B2, “Macrocyclic compound and uses thereof” (President and Fellows of Harvard College, priority 2017, dated 2023).

Tests used:
[1] = test system: human squamous cell carcinoma of the head and neck (SCCHN) cell line FaDu; test: FaDu growth inhibition assay; assay type: cell-based; details: 3 days incubation, CellTiter-Glo
Description: In this assay, the growth inhibitory activity of test compounds in a human squamous cell carcinoma of the head and neck (SCCHN) cell line FaDu was measured. FaDu cells were maintained in an RPMI-1640 (Wako Pure Chemical Industries, Ltd., 187-02021) medium containing 10% fetal bovine serum (FBS: Nichirei, 12D168), and penicillin and streptomycin in a 5% CO2 incubator (37° C.). To each well of a 96 well plate (Becton, Dickinson and Company, 353219), 75 μL of FaDu cell suspension adjusted to a concentration of 4×10^4 cells/mL with the culture medium was added, and the cells were incubated overnight in a 5% CO2 incubator (37° C.). On the next day, 25 μL of Compound (1) or Halichondrin B in three-fold dilution series suspended in the culture medium was added to each well, and the resultant was incubated for 3 days in a 5% CO2 incubator (37° C.). Then, cell viability was determined by CellTiter-Glo® Luminescent Cell Viability Assay (Promega) with EnVision 2103 Multilabel Reader (Perkin-Elmer, Wellesley, Mass.). Value of the wells containing cells without adding the test compounds was defined as 100% and the value of the wells containing no cells was defined as 0%. The concentration of the test compound necessary for inhibiting the cell growth by 50% (i.e., an IC50 value) was calculated, and shown in Table 1.

[2] = test system: KPL-4 subcutaneous xenograft; test: Antitumor activity in KPL-4 subcutaneous xenograft model in combination with trastuzumab in mice; assay type: in vivo
Description: A human HER-2 positive breast cancer cell line KPL-4, which had been cultured in an RPMI-1640 medium containing 10% FBS, and penicillin and streptomycin, was adjusted to a concentration of 1×10^8 cells/mL with Hank's Balanced Salt Solution to prepare a cell suspension. The cell suspension was inoculated in a volume of 100 μL into a subcutaneous part of a right flank of nude mice, 7 weeks of ages (CAnN.Cg-Foxnlnu/CrlCrlj, female, Charles River Laboratories Japan, Inc.).
On the basis of the volumes of tumors obtained on the first day of administration, the mice were grouped such that averages of the tumor volumes were substantially equal among the groups. The experiment was conducted on groups each consisting of 6 mice. Each test compound was dissolved in DMSO and a solution was stored at the freezer before use. Immediately before the administration, the stock solution was diluted in saline.

[3] = test system: HSC-2-Luc orthotopic transplantation (tongue); test: HSC-2 orthotopic transplantation mouse model; assay type: in vivo, mice
[4] = test system: microtubule dynamics in U2OS-EB3-AG osteosarcoma cell line; test: Cell-based microtubule dynamics assay
Description: A cell-based microtubule (MT) dynamics assay was conducted with the U2OS-EB3-AG osteosarcoma cell line, in which the fusion protein of EB3 (a microtubule plus end binding protein) and Azami-Green (EB3-AG) was stably expressed. U2OS-EB3-AG cells were culture in RPMI-1640 medium containing 10% FBS, and penicillin-streptomycin, at 37° C. in a humidified 5% CO2 atmosphere. The MT dynamics in the live cells can be visualized as the movement of the comet-like structure of EB3-AG. U2OS-EB3-AG cells plated on glass-base culture plates (EZVIEW plate, AGC Techno Glass, Japan) were treated with Compound (1) at the indicated concentration and the microtubule dynamics were monitored by time-lapse imaging using fluorescent microscope with 60-fold magnification oil-immersed objective lens (BZ-X710, KEYENCE, Japan). Higher magnification views of the boxed areas were shown in inlets. When treated with Compound (1) at 0.5 nM (IC50 value for antiproliferative activity in U2OS-EB3-AG cells), the comet-like structures became hard to observe at around 60 minutes after the addition of the compound.

[5] = test system: OE33 (human adenocarcinoma of the esophagus); test: In vitro antiproliferative activity, OE33; assay type: cell-based; details: OE33, 72 hours
Description: The in vitro antiproliferative assays for Compound (1) were conducted using a small panel of cancer cell lines including human squamous cell carcinoma of the esophagus (OE21, TE-8), human adenocarcinoma of the esophagus (OE33), and human uterine sarcoma (MES-SA, MES-SA-Dx5-Rx1). All cell lines were cultured in RPMI-1640 medium containing 10% FBS, and penicillin-streptomycin (culture medium), in a 5% CO2 incubator (37° C.). To each well of a 96 well plate (Becton, Dickinson and Company, 353219), 75 μL of cell suspension adjusted to a concentration of 4×10^4 cells/mL with the culture medium was added, and the cells were incubated overnight in a 5% CO2 incubator (37° C.). On the next day, 25 μL of Compound (1) in three-fold dilution series suspended in the culture medium was added to each well, and the resultant was incubated for 72 hours in a 5% CO2 incubator (37° C.). Then, cell viability was determined by CellTiter-Glo® Luminescent Cell Viability Assay (Promega) with 2013 EnVision™ Multilabel Reader (Perkin-Elmer, Wellesley, Mass.). Value of the wells containing cells without adding the test compounds was defined as 100% and the value of the wells containing no cells was defined as 0%. […] The P-gp susceptibility was calculated as the ratio of the IC50 value in MES-SA-Dx5-Rx1 cells, which overexpress P-gp, to the IC50 value in MES-SA cells.

[6] = test system: CTG-2041 (human angiosarcoma) tumor fragments; test: Antitumor effects in CTG-2041 soft tissue sarcoma xenograft model in mice as monotherapy; assay type: in vivo; details: 100 μg/kg intravenously on Day 1 and Day 8
Excerpt: Tumor fragments of human angiosarcoma CTG-2041 were implanted s.c. in the left flank of female mice. Tumor growth was monitored twice a week using digital caliper, so as to calculate the volume of the tumor in accordance with the following calculation formula: Tumor volume (mm^3)=Longest diameter (mm)×Shortest diameter (mm)×Shortest diameter (mm)/2 Relative tumor volume (RTV)=Tumor volume (day X)/Tumor volume (the first day)
When the volume of tumors reached approximately 200 mm^3, animals are matched by tumor volume into treatment or control groups and dosing initiated on Day 1. Each group was consisted with five mice. Compound (1) was dissolved in DMSO and a solution was stored in the freezer before use. Compound (1) (100 μg/kg) diluted in saline and intravenously injected on Day 1 and Day 8.

C=C1C[C@@H]2CC[C@@]34C[C@H]5O[C@H]6[C@@H](O3)[C@H]3O[C@H](CC[C@@H]3O[C@H]6C5O4)CC(=O)O[C@@H]3[C@@H](C)[C@@H]4O[C@@H]5C[C@]6(C[C@@H]7O[C@]8(C[C@H](C)[C@@H]9O[C@H](CN)[C@H](O)C[C@@H]9O8)C[C@H](C)[C@@H]7O6)O[C@@H]5C[C@@H]4O[C@H]3C[C@H]3O[C@@H](CC[C@@H]1O2)C[C@@H](C)C3=C [Compound (1)]
IC50 [1]: 0.0714 nM | Tumor Regression (%) ([2]; 0.09 mg/kg intravenously + trastuzumab 10 mg/kg): 83% | Tumor Regression (%) ([2]; 0.09 mg/kg intravenously, without trastuzumab): 43% | Tumor Regression (%) ([2]; 0.18 mg/kg intravenously + trastuzumab 10 mg/kg): 100% | Tumor Regression (%) ([2]; 0.18 mg/kg intravenously, without trastuzumab): 87% | survived mice on Day 100 ([3]; Compound (1)+CTX combination group, n=16): 10 | bioluminescence signal ([3]; with cetuximab, after Day 14): clearly reduced the bioluminescence signal in all mice | effect on microtubule (MT) dynamics [4]: had the ability to suppress the MT dynamics | time at which comet-like structures of EB3-AG became hard to observe ([4]; 0.5 nM, after the addition of the compound): around 60 minutes | antiproliferative activity [5]: potent antiproliferative agent | antitumor activity [6]: tumor regression
